# According to EP0790996B1, “PYRIDAZINOQUINOLINE COMPOUNDS” (AstraZeneca AB, priority 1994, dated 1996):
# Read-outs that look alike come from different tables or passages of the source.
# Assays:
# [1] = molecular target: T1, glycine receptor of the NMDA receptor complex (Rattus norvegicus, UniProt P35439); assay: [3H]-glycine binding assay (Test A); set-up: species or system Sprague-Dawley rats; details: 20 nanomolar [3H]-glycine, rat synaptic membranes, pH 7.1, 30 minutes at 4 °C
# T1 construct: Freshly dissected cortices and hippocampi are homogenized in 0.32 M sucrose; from tissue; host or cells: rat cerebral cortex and hippocampus synaptic membranes
# Procedure: In the [^3H]-glycine binding assay, neuronal synaptic membranes are prepared from adult (about 250 g) male Sprague-Dawley rats. Freshly dissected cortices and hippocampi are homogenized in 0.32 M sucrose (110 mg/mL). Synaptosomes are isolated by centrifugation (1000 xg, 10 min), the supernatant is pelleted (20,000 xg, 20 min) and resuspended in double-distilled water. The suspension was centrifuged for 20 minutes at 8,000 xg. The resulting […] and buffy coat are washed twice (48,000 xg, 10 mins, resuspension in double-deionized water). The final pellet is quickly frozen (dry ice/ethanol bath) under double-deionized water and stored at -70 °C.
# On the day of the experiment, thawed synaptic membranes are homogenized with a Brinkmann Polytron (tm, Brinkmann Instruments, Westbury, N.Y.) tissue homogenizer in 50 millimolar tris(hydroxymethyl)aminomethane citrate, pH 7.1. The membranes are incubated with 0.04% Sufact-AMPS X100 (tm, Pierce, Rockford, IL) in buffer for 20 minutes at 37 °C and washed six times by centrifugation (48,000 xg, 10 min) and resuspended in buffer. The final pellet is homogenized at 200 mg wet weight/mL of the buffer for the binding assay.
# For [^3H]-glycine binding at the N-methyl-D-aspartate receptor, 20 nanomolar [^3H]-glycine (40-60 Ci/mmol, New England Nuclear, Boston, MA) is incubated with the membranes suspended in 50 millimolar tris (hydroxymethyl)aminomethane citrate, pH 7.1 for 30 minutes at 4 °C. Glycine, 1 millimolar, is used to define the nonspecific binding. Bound [^3H]-glycine is isolated from free using a Brandel (Biomedical Research and Development Laboratories, Gaithersburg, MD) cell harvester for vacuum filtration over glass fiber filters (Whatman GF/B from Brandel, Gaithersburg, MD) presoaked in 0.025% polyethylenimine. The samples retained on the glass fiber filters are rinsed 3 times with a total of 2.5 mL ice cold buffer. Radioactivity is estimated by liquid scintillation counting. IC50 values are obtained from a least-squares regression of a logit-log transformation of the data. […]
# [2] = test system: NMDA-induced excitatory response of red nucleus cells; assay: Red nucleus test (Test B); assay type: in vivo, Rats; details: Rattus norvegicus
# Procedure: The purpose of this test is to determine the effects of intravenously administered glycine antagonists on the NMDA-induced excitatory response of red nucleus cells.
# The procedure for the red nucleus test is as follows. Rats are anesthetized with chloral hydrate (400 mg/kg ip) and the femoral vein is catheterized for iv drug administration. Five-barrel micropipettes are stereotaxically positioned in the red nucleus. Typically, three to four of the five barrels are filled as follows: the recording barrel with 2M potassium citrate, the current balancing barrel with 4M NaCl, the drug barrel with 25mM NMDA, and another drug barrel with 2.5mM quisqualic acid (QA is only used in selectivity studies). NMDA is iontophoretically applied with an ejection current that is adjusted depending on the sensitivity of each individual red nucleus cell. The NMDA is cycled on and off (usually 30 - 60 sec. on and 60 - 120 sec. off) and the firing rate of the cell during each period is recorded. Once the baseline firing rate of the cell has been established, the test drug is administered iv. The effect of the drug on the NMDA-induced excitatory response of the red nucleus cell can be both qualitatively and quantitatively evaluated from the recordings and the raw data accumulated.
# [3] = test system: Male SHR rats; assay: Rat Middle Cerebral Artery test (Test C), permanent MCA occlusion; assay type: in vivo; details: 24 hours after MCA/common carotid artery occlusion
# Procedure: Male SHR rats weighing 280-320 g are used for these studies. The method used for permanent middle cerebral artery (MCA) occlusion is as described by Brint et al (1988). […] Following occlusions, drugs are administered intravenously via jugular catheter. Twenty-four hours after MCA/common carotid artery occlusion, the animals are sacrificed and their brains quickly removed. Coronal sections of 1 mm thickness are cut using a vibratome and stained with 2,3,5, triphenyl, 2H-tetrazolium chloride (TTC) dye. Following staining, necrotic tissue is readily distinguished from the intact brain and the area of infarcted cortex can be traced on an image analyzer. The infarct volume for each section is quantified with an image analyzer, and the total infarct volume is calculated with a program that summed all interval volume. See S. Brint et al. J. Cerebral Blood Flow 8:474-485 (1988). The statistical analysis of the difference between the volume of ischemic damage in the vehicle control and drug-treated animals is analyzed by student's-t-test. […] For example, the compound of example 145 at an I.V. dose of 10 mgs/kg/hr caused an infarct % volume change of -42% while a 5.0 mg/kg/hr I.V. dosage caused a -8% reduction.
smiles,measurement,setting,value
"COc1ccc(-n2nc(O)c3c(c2=O)Cc2ccc(Cl)cc2N3)cc1 [Example 148, 7-chloro-4-hydoxy-2-(4'-methoxyphenyl)-5,10-dihydro-2H-pyridazino[4,5-b]quinoline-1-one]",IC50,[1],440 nM
C/C(=C\C(N)C(=O)O)CP(=O)(O)O (centres unmarked) [CGP 37849],ED50,"[2]; iv, read-out: ID50",1.7 mg/kg
NC1CCN(O)C1=O (racemic) [HA-966],ED50,"[2]; reference agents, intravenous, anesthetized rats, read-out: ID50 (the source's name)",7.9 mg/kg
"O=c1c2c(c(O)nn1-c1ccccc1)Nc1cc(Cl)ccc1C2 [Example 147, 7-chloro-4-hydroxy-2-phenyl-5,10-dihydro-2H-pyridazino [4,5-b]quinolin-1-one]",IC50,[1],17 nM
"Cc1ccc(-n2nc(O)c3c(c2=O)Cc2ccc(Cl)cc2N3)cc1 [Example 145, 7-Chloro-4-hydroxy-5,10-dihydro-2-(4'-methylphenyl)pyridazino[4,5-b]-quinoline-1-one]",IC50,[1],45 nM
same,infarct % volume change,[3]; 5.0 mg/kg/hr I.V. dosage,-8%
same,infarct % volume change,[3]; I.V. dose of 10 mgs/kg/hr,-42%
same,ED50,"[2]; as the meglumine salt (N=5), administered iv, read-out: ID50 (the source's name)",6.54 mg/kg
